Test results from patent US9920295B2, “Bioreactor for isolation of rare cells and methods of use” (The Trustees of the University of Pennsylvania, priority 2012, dated 2018).
Where two headings read alike, the source gives them in different places.

Assays:
NMM-IIA pS1943 = assay: pS1943 of NMM-IIA by phospho-specific flow cytometry; format: cell-based, human; conditions: under cytokine stimulation (SCF and Tpo)
Method: Cells were fixed with 4% paraformaldehyde in PBS for 10 min, washed with PBS and resuspended in 0.1% saponin in HBSS (staining medium). The samples were then stained with antibodies against cytoplasmic antigens, including NMM-IIA (Sigma), NMM-IIB, phospho-NMM-IIA and caspase-3 (all from Cell Signaling Technology) for 30 min at room temperature. In some cases, cells were concurrently stained with PE anti-CD34 or anti-human CD38 for subpopulation analysis. Cells were then washed and stained with anti-rabbit or mouse secondary antibodies conjugated with Alexa 647 (Invitrogen) for 30 min, followed by analysis on FACSCalibur.

[1] = tested on: CD34+ cells (CFU-E, BFU-E); assay: Erythroid progenitor number in the presence of Epo (flow cytometry); format: cell-based, human; conditions: SCF, IL-3 and Epo, 3 days
Method: FIG. 20, comprising FIG. 20A through FIG. 20E, illustrates the functional effects of myosin-II inhibition on HSC differentiation. FIG. 20A (Left) illustrates the enrichment of polyploid MKs by Bleb from CD34^+ cells cultured in SCF and Tpo (n=4 donors). Y-axis represents the ratios between polyploid MKs and 2n+4n MKs. […] Hill coefficient=7.0. FIG. 20A (Middle) illustrates the enrichment of BFU-E relative to CFU-GM in the absence of Epo. CD34^+-derived cells were cultured with SCF and Tpo under Bleb and progenitors were enumerated by colony forming assays. […] FIG. 20A (Right) illustrates the sensitivity of erythroid progenitors against Bleb in the presence of Epo. CD34^+ cells were cultured with SCF, IL-3 and Epo for 4 days before treating with Bleb for 3 days, followed by flow cytometry with Hoechst 33342 to stain for nuclei. BFU-E=CD34^+IL-3R^+CD36^-; CFU-E=CD34^-IL-3R^-CD36^+. Absolute values were normalized to […] initial cell input and fit to dose-response curves: […] FIG. 20B is a graph depicting the limiting dilution analyses showing functional LT-HSCs after myosin inhibition. Human-CD34^+-derived cells were treated with Bleb for 3 days and injected intra-tibally into irradiated NSG mice. […] FIG. 20D illustrates the kinetics of human-CD41^+ plts in circulation were measured after transplantation of human CD34^+-derived cells and normalized by the initial number of CD41^+ cells transplanted. Areas under curves show significant differences between drug-treated and untreated. […] FIG. 20E is a graph showing that human-CD41^+ plts derived in vivo after transplantation into NSG mice show the normal plt size compared to human blood plts. […] Freshly purified bone marrow-derived human CD34^+ cells were obtained from either the Penn Xenograft Core Facility or AllCells (Emeryville, Calif.). Cells from at least 20 different donors were used in this study. Purity of the samples (>98%) was confirmed by flow cytometry with monoclonal antibody against human CD34. All experiments were performed in HSC expansion media ([…], Sigma) supplemented with 1× antibiotics, 20% BIT 9500 Serum Substitute (StemCell Technologies), 2 mM […] (Gibco) and the following human recombinant cytokines: SCF (100 ng/ml) and Tpo (100 ng/ml). In some occasions, the media was also supplemented by G-CSF (100 ng/ml), epidermal growth factor (EGF, 100 ng/ml), transforming growth factor beta 1 (TGF-beta1, 100 ng/ml), erythropoietin (EPO, 1 U/ml) and interleukin-3 (IL-3, 10 ng/ml). All cytokines were purchased from R&D Systems. After cells were cultured for 4 days, they were treated with different doses of cellular contractility inhibitors, including (±)-Blebbistatin (Bleb) (EMD Biosciences) and/or CH-223191 (Sigma) for indicated durations of up to 3 days.

[2] = tested on: human-CD41+ platelets in NSG mice; assay: In vivo human platelet generation after intratibial transplantation into NSG mice; parameters: species or system mouse
Method: Eight- to 10-wk-old nonobese diabetic (NOD)/SCID/IL-2Rγ−/− (NSG) mice were obtained and maintained in-house at the Penn Xenograft Core Facility. Before transplantation (˜24 h), mice received a sublethal dose of 320 cGy total body irradiation. Cultured human CD34^+-derived cells (0.5−3×10^5 uncultured BM CD34^+ equivalent) with or without drug treatment was suspended in 20 μL PBS and injected directly into the tibia. Peripheral blood (PB) was then obtained from the transplanted mice via retroorbital bleeding and human platelet quantification was done at indicated times. To calculate human platelet in NSG circulation, the total platelet concentration count was done by Hemavet (Drew Scientific), and 2 μL of PB per staining sample was washed in the presence of PGE1 inhibitor (Sigma) and resuspended in PBS. Cells were incubated with mouse Fc-blocker (BD Biosciences) for 5 min, followed by addition of mouse anti-human CD41-FITC and rat anti-mouse CD41-PE antibodies (eBioscience). After 30 min incubation at room temperature, cells were fixed by addition of 0.5% paraformaldehyde and analyzed by flow cytometry within 2 h. Platelets were gated on based on forward and side scatters, and at least 50,000 events were acquired. Human platelet concentration was obtained by multiplying the total platelet count by the percentage of human CD41-FITC of the total CD41^+ platelets (mouse plus human). Microscopic determination and isotype control with mixing known number of human platelets indicate the threshold detection limit of 0.001%. The total human platelet number in each transplanted NSG mouse was estimated by assuming that the average total mouse blood is ˜1.5 mL (Riches et al., 1973, J Physiol, 228:279-284). All animal experiments were performed in accordance with institutional guidelines approved by the ethical committee from the University of Pennsylvania.

For `Cc1ccc2c(c1)C(=O)C1(O)CCN(c3ccccc3)C1=N2` (racemic) [blebbistatin, (±)-blebbistatin], the “effect on pS1943 level” value (NMM-IIA pS1943) was “inhibits the reduction of pS1943”, the IC50 ([1]; read-out: BFU-E 2n IC50) was 10.9 µM and the IC50 ([1]; read-out: BFU-E 4n IC50) was 13 µM. The IC50 ([1]; read-out: CFU-E 2n IC50) was 8.7 µM, the IC50 ([1]; read-out: CFU-E 4n IC50) was 12.9 µM and the “human plts per transplanted CD41+ cell vs untreated” value ([2]; Phase-I and Phase-II of circulation) was “about 4 fold”. The plt half-life ([2]; Phase-II decay, regardless of drug treatment) was about 37 h and the “in vivo human platelets per transplanted CD41+ cell vs untreated” value ([2]; cells treated ex vivo 3 d, day 3 posttransplant) was “about fourfold”.
